The target of test [1] is T1, Adrenergic β2 (Homo sapiens, UniProt P07550).
T1 construct: endogenous in cells; host or cells: H292 cells
The test can be described thus: cAMP production in H292 cells, AlphaScreen cAMP detection (10 minutes incubation with test compound). Conditions: for Intrinsic Activity: fraction relative to the maximum activity determined for formoterol, 10 minutes incubation; for EC50: rolipram 300 μM, test compounds incubated 10 minutes at room temperature. The class given is cell-based. As for the experimental part:
H292 cells were grown in RPMI (Roswell Park Memorial Institute) medium containing, 10% (v/v) FBS (foetal bovine serum) and 2 mM L-glutamine. Cells were grown in 225 cm2 flasks containing 25 mL media in a humidified incubator at 37° C., 5% CO2. Cells were harvested from the flask and passaged at a 1 in 10 dilution once per week.
The media from flasks containing H292 cells was removed, rinsed with 10 mL PBS (phosphate buffered saline) and replaced with 10 mL Accutase™ cell detachment solution. Flasks were incubated for 15 minutes in a humidified incubator at 37° C., 5% CO2. The cell suspension was counted and the cells re-suspended in RPMI media (containing 10% (v/v) FBS and 2 mM L-glutamine) at 0.05×10^6 cells per mL. 5000 cells in 100 μL were added to each well of a tissue-culture-treated 96-well plate and the cells incubated overnight in a humidified incubator at 37° C., 5% CO2. The culture media was removed, washed twice with 100 μL assay buffer and replaced with 50 μL assay buffer. Cells were rested at room temperature for 20 minutes after which time 25 μL of rolipram (1.2 mM made up in assay buffer containing 2.4% (v/v) dimethylsulphoxide) was added. Cells were incubated with rolipram for 10 minutes after which time test compounds (made up as ×4 concentrated stocks in assay buffer containing 4% (v/v) dimethylsulphoxide) were added and the cells were incubated for 10 minutes at room temperature. Final rolipram concentration in the assay was 300 μM and final vehicle concentration was 1.6% (v/v) dimethylsulphoxide. The reaction was stopped by removing supernatants, washing once with 100 μL assay buffer and replacing with 50 μL lysis buffer. The cell monolayer was frozen at −80° C. for 30 minutes (or overnight).
(§1) The concentration of cAMP (cyclic adenosine monophosphate) in the cell lysate was determined using the AlphaScreen™ methodology. The frozen cell plate was thawed for 20 minutes on a plate shaker then 10 μL of the cell lysate was transferred to a 96-well white plate. 40 μL of mixed AlphaScreen™ detection beads (containing equal volumes of donor beads (pre-incubated with biotinylated cAMP in the dark for 30 minutes) and acceptor beads), was added to each well and the plate incubated at room temperature for 10 hours in the dark. The AlphaScreen™ signal was measured using an EnVision spectrophotometer (Perkin-Elmer Inc.) with the recommended manufacturer's settings. cAMP concentrations were determined by reference to a calibration curve determined in the same experiment using standard cAMP concentrations (made up in lysis buffer in a 96-well tissue-culture-treated plate and frozen/thawed alongside the test samples) and detected using the same protocol. Concentration response curves for agonists were constructed to determine both the pEC50 and Intrinsic Activity. Intrinsic Activity was expressed as a fraction relative to the maximum activity determined for formoterol in each experiment.

Test [2] deals with T1, Adrenergic β2. As to the kind of experiment: Alternative Adrenergic β2 Mediated cAMP Production in H292 cells (60 minutes incubation with test compound). It is filed as cell-based. Particulars: for EC50: rolipram 300 μM, test compounds incubated 60 minutes at room temperature; for Intrinsic Activity: fraction relative to the maximum activity determined for formoterol, 60 minutes incubation. The protocol: H292 cells were grown in 225 cm2 flasks incubator at 37° C., 5% CO2 in RPMI medium containing, 10% (v/v) FBS (foetal bovine serum) and 2 mM L-glutamine.
Adherent H292 cells were removed from tissue culture flasks by treatment with Accutase™ cell detachment solution for 15 minutes. Flasks were incubated for 15 minutes in a humidified incubator at 37° C., 5% CO2. Detached cells were re-suspended in RPMI media (containing 10% (v/v) FBS and 2 mM L-glutamine) at 0.05×10^6 cells per mL. 5000 cells in 100 μL were added to each well of a tissue-culture-treated 96-well plate and the cells incubated overnight in a humidified incubator at 37° C., 5% CO2. The culture media was removed and cells were washed twice with 100 μL assay buffer and replaced with 50 μL assay buffer (HBSS solution containing 10 mM HEPES pH7.4 and 5 mM glucose). Cells were rested at room temperature for 20 minutes after which time 25 μL of rolipram (1.2 mM made up in assay buffer containing 2.4% (v/v) dimethylsulphoxide) was added. Cells were incubated with rolipram for 10 minutes after which time test compounds were added and the cells were incubated for 60 minutes at room temperature. The final rolipram concentration in the assay was 300 μM and final vehicle concentration was 1.6% (v/v) dimethylsulphoxide. The reaction was stopped by removing supernatants, washing once with 100 μL assay buffer and replacing with 50 μL lysis buffer. The cell monolayer was frozen at −80° C. for 30 minutes (or overnight).
as §1, with “using” for “using the”, “pre-incubated” for “(containing equal volumes of donor beads (pre-incubated”, “cAMP,” for “cAMP in the dark for 30 minutes) and acceptor beads),”, “concentrations.” for “concentrations (made up in lysis buffer in a 96-well tissue-culture-treated plate and frozen/thawed alongside the test samples) and detected using the same protocol.”, “constructed and data was fitted to a four parameter logistic equation” for “constructed”

This note sets out measurements from patent US20090029958A1, “PHENETHANOLAMINE DERIVATIVES AS BETA2 ADRENORECEPTOR AGONISTS” (priority 2006, published 2009).

Where a name gives a salt, the structure may show the parent alone.

T1 sequence (P07550 whole entry): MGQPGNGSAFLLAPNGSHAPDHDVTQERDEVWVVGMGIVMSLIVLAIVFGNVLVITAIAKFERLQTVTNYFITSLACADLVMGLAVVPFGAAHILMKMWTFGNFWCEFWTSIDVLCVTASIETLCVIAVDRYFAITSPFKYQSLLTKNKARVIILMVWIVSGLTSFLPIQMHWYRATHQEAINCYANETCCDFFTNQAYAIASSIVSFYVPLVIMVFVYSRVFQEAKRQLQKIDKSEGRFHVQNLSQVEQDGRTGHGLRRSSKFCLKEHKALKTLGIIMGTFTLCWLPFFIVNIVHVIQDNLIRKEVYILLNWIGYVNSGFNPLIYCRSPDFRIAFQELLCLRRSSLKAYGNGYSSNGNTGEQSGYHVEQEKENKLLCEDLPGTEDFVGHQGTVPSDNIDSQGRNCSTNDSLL

A word on the EC50: it is the concentration needed to bring the measured effect to its halfway point. Low readings indicate a more potent agent, high ones a less potent agent. `O=C(CCN1CCC(NC[C@H](O)c2ccc(O)c3[nH]c(=O)ccc23)CC1)NCc1ccccc1` [Example 6, N-Benzyl-3-(4-{[(2R)-2-hydroxy-2-(8-hydroxy-2-oxo-1,2-dihydroquinolin-5-yl)ethyl]amino}piperidin-1-yl)propanamide]: in test [1], the “Intrinsic Activity” value was determined as 0.8 and the EC50 is 7.94 nM.

For the compound `O=c1ccc2c([C@@H](O)CNC[C@H]3CCCN(CCOCCc4ccccc4)C3)ccc(O)c2[nH]1` [Example 14, 8-Hydroxy-5-{(1R)-1-hydroxy-2-[({(3R)-1-[2-(2-phenylethoxy)ethyl]piperidin-3-yl}methyl)amino]ethyl}quinolin-2(1H)-one], in test [1], the “Intrinsic Activity” value turned out to be 1.0 and a half-maximal effect (EC50) was put at 5.01 nM. `O=C(CCN1CCC(NC[C@H](O)c2ccc(O)c3[nH]c(=O)ccc23)CC1)NCc1cccc(Cl)c1Cl` [Example 36, N-(2,3-Dichlorobenzyl)-3-(4-{[(2R)-2-hydroxy-2-(8-hydroxy-2-oxo-1,2-dihydroquinolin-5-yl)ethyl]amino}piperidin-1-yl)propanamide] had an EC50 in test [2] of 3.16 nM. In the case of `Cc1cccc(Cl)c1CNC(=O)CCN1CCC(NC[C@H](O)c2ccc(O)c3[nH]c(=O)ccc23)CC1` [Example 31, N-(2-Chloro-6-methylbenzyl)-3-(4-{[(2R)-2-hydroxy-2-(8-hydroxy-2-oxo-1,2-dihydroquinolin-5-yl)ethyl]amino}piperidin-1-yl)propanamide], in test [2], the “Intrinsic Activity” value was found to be 0.8 and the EC50 was 5.01 nM. The corresponding values for `O=c1ccc2c([C@@H](O)CNCC3(O)CCN(CCOCCc4cccc5c4CCCC5)CC3)ccc(O)c2[nH]1` [Example 74, 8-Hydroxy-5-{(2R)-1-hydroxy-2-[(4-hydroxy-1-{2-[2-(5,6,7,8-tetrahydronaphthalen-1-yl)ethoxy]ethyl}piperidin-4-ylmethyl)amino]ethyl}-1H-quinolin-2-one] are 0.9 and 0.794 nM. In the case of `O=c1ccc2c([C@@H](O)CNCC3(O)CCN(CCOCCc4ccccc4)CC3)ccc(O)c2[nH]1` [Example 5, 8-Hydroxy-5-{(1R)-1-hydroxy-2-[({4-hydroxy-1-[2-(2-phenylethoxy)ethyl]piperidin-4-yl}methyl)amino]ethyl}quinolin-2(1H)-one], in test [1], the “Intrinsic Activity” value is reported as 0.8 and the midpoint of the response, the EC50, lay at 2.51 nM. The corresponding values for `O=c1ccc2c([C@@H](O)CNC3CCN(CCCOCCc4ccccc4)CC3)ccc(O)c2[nH]1` [Example 3, 8-Hydroxy-5-[(1R)-1-hydroxy-2-({1-[3-(2-phenylethoxy)propyl]piperidin-4-yl}amino)ethyl]quinolin-2(1H)-one] are 0.8 and 31.6 nM. For `O=C(CCN1CCC(NC[C@H](O)c2ccc(O)c3[nH]c(=O)ccc23)CC1)NC12CC3CC(CC(C3)C1)C2` [Example 41, N-1-Adamantyl-3-(4-{[(2R)-2-hydroxy-2-(8-hydroxy-2-oxo-1,2-dihydroquinolin-5-yl)ethyl]amino}piperidin-1-yl)propanamide], in test [2], the “Intrinsic Activity” value is 0.8 and the EC50 is 3.98 nM.

With `O=c1[nH]c2c(O)ccc([C@@H](O)CNCC3CN(CCCOCCc4ccccc4)C3)c2s1` [Example 20, 4-Hydroxy-7-{(1R)-1-hydroxy-2-[({1-[3-(2-phenylethoxy)propyl]azetidin-3-yl}methyl)amino]ethyl}-1,3-benzothiazol-2(3H)-one hydrochloride], in test [2], the “Intrinsic Activity” value was 1 and a half-maximal response (EC50) required 0.316 nM. Regarding `O=c1ccc2c([C@@H](O)CN[C@H]3CC[C@H](NCCOCCc4ccccc4)CC3)ccc(O)c2[nH]1` [Example 2, 8-Hydroxy-5-{(1R)-1-hydroxy-2-[(trans-4-{[2-(2-phenylethoxy)ethyl]amino}cyclohexyl)amino]ethyl}quinolin-2(1H)-one], in test [1], the “Intrinsic Activity” value came to 0.9 and the EC50 is 20 nM.
